Laboratory results: BindingDB's records for patent US9273014 (Bristol-Myers Squibb Co., 2016)

Biological target: Neurogenic locus notch homolog protein 3 (Human, UniProt Q9UM47)
Assay: Biological Assay

Neurogenic locus notch homolog protein 3, sequence (Q9UM47 whole entry): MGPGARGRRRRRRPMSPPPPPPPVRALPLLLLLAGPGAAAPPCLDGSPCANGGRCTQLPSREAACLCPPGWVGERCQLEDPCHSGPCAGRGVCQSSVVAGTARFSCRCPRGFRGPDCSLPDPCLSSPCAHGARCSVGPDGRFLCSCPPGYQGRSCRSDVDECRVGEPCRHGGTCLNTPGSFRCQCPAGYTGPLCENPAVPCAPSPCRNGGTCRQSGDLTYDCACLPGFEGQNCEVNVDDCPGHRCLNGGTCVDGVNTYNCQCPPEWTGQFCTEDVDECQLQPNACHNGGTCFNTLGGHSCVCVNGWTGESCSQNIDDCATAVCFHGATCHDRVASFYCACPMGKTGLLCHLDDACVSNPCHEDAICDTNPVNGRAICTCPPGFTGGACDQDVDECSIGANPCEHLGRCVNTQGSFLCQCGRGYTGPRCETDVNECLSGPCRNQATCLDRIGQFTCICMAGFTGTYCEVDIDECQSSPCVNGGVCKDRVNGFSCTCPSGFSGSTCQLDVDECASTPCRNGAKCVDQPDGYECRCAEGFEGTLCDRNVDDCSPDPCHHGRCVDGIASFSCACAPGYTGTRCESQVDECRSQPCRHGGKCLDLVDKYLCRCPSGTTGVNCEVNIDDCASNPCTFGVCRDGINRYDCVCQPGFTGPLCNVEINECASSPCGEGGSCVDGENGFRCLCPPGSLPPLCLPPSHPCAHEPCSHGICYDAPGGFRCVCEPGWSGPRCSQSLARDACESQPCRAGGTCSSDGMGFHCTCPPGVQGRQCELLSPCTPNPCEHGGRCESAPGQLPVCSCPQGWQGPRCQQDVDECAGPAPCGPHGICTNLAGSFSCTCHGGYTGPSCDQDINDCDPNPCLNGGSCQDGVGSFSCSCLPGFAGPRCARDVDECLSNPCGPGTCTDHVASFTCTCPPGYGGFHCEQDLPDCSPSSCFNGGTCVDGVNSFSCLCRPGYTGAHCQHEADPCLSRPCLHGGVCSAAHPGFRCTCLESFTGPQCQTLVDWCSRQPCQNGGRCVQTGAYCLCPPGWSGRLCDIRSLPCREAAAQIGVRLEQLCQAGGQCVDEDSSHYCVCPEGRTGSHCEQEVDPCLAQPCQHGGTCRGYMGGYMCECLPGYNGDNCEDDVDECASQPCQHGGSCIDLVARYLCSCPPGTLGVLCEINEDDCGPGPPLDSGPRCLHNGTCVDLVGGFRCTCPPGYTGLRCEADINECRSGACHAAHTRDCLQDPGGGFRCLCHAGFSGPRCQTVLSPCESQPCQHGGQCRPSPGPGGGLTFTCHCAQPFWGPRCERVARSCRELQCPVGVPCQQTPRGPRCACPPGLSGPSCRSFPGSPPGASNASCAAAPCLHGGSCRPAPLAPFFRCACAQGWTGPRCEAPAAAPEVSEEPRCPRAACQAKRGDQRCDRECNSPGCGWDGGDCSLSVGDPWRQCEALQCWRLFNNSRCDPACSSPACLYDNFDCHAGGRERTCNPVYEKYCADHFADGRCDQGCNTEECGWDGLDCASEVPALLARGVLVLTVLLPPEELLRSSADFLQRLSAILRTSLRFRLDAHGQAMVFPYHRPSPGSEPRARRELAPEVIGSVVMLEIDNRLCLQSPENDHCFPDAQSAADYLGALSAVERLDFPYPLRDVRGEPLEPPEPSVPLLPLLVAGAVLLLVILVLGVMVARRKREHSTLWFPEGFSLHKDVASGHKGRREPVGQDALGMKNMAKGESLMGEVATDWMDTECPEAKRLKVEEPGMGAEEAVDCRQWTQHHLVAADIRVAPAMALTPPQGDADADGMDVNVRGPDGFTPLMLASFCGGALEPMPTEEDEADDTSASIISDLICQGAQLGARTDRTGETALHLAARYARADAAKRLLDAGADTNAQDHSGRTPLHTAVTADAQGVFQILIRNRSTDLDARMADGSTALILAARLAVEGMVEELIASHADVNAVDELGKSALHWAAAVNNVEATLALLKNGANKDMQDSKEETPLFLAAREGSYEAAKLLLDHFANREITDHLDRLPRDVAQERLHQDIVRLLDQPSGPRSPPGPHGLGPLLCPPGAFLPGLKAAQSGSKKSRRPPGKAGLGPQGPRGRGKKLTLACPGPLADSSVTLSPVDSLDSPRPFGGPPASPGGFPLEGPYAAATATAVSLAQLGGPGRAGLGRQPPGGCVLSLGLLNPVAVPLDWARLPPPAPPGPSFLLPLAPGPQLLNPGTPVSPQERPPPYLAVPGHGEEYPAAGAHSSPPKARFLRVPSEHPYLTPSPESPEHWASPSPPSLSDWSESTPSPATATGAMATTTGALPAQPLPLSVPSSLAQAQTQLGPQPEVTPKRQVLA

SMILES: COc1cccc2c1NC(=O)[C@@H](NC(=O)[C@H](CCC(F)(F)F)[C@H](CCC(F)(F)F)C(N)=O)N=C2c1cccc(C)c1 [US9273014, 29]
- IC50: 5.7 nM

SMILES: CC(C)c1cccc2c1NC(=O)[C@@H](NC(=O)[C@H](CCC(F)(F)F)[C@H](CCC(F)(F)F)C(N)=O)N=C2c1ccccc1 [US9273014, 13]
- IC50: 4.9 nM
